Results from ChEMBL document CHEMBL3272104, “Inhibition of Lactobacillus casei thymidylate synthetase by 5-substituted 2'-deoxyuridylates. Preliminary quantitative structure-activity relationship” (J Med Chem, 1977).
Each block holds one molecule with its values, some of them ahead of it.

What was measured:
Thymidylate synthase [1] = biological target: T1, Thymidylate synthase (Lactobacillus casei, UniProt P00469); assay: Inhibition of amethopterin-resistant Lactobacillus casei thymidylate synthetase-catalyzed dTMP formation using dUMP as substrate by spectrophotometric analysis in presence of CH2-H4-folate; design: species or system Lacticaseibacillus casei; settings: read-out: Ki(app)
T1 sequence (P00469 whole entry): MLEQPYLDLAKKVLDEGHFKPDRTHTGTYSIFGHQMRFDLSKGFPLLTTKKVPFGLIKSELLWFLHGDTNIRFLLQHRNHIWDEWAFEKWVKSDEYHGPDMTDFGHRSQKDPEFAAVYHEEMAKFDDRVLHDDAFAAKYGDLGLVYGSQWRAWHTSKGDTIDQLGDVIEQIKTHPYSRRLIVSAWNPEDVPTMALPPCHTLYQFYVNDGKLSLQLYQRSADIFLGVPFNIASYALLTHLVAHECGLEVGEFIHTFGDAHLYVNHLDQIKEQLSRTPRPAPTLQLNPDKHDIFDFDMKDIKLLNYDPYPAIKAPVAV

Thymidylate synthase [2] = biological target: T1, Thymidylate synthase; assay: Inhibition of amethopterin-resistant Lactobacillus casei thymidylate synthetase-catalyzed 5-BrdUMP dehalogenation by absorbance analysis in absence of CH2-H4-folate; design: species or system Lacticaseibacillus casei; settings: read-out: Ki(app)
[3] = biological target: T2, Thymidylate synthase (Lactobacillus casei) (UniProt P00469); assay: Activity at amethopterin-resistant Lactobacillus casei thymidylate synthetase assessed as rate of dTMP formation by absorbance analysis in presence of CH2-H4-folate; settings: Lacticaseibacillus casei
T2 sequence (whole entry): T1 sequence (P00469 whole entry)

[4] = substrate: O=c1ccn([C@H]2C[C@H](O)[C@@H](COP(=O)(O)O)O2)c(=O)[nH]1; settings: Lacticaseibacillus casei
Description: Activity at amethopterin-resistant Lactobacillus casei thymidylate synthetase by spectrophotometric analysis in presence of CH2-H4-folate

[5] = substrate: O=c1[nH]c(=O)n([C@H]2C[C@H](O)[C@@H](COP(=O)(O)O)O2)cc1Br; assay: Activity at amethopterin-resistant Lactobacillus casei thymidylate synthetase by absorbance analysis; settings: Lacticaseibacillus casei
[6] = substrate: O=c1[nH]c(=O)n([C@H]2C[C@H](O)[C@@H](COP(=O)(O)O)O2)cc1I; assay: as above; settings: Lacticaseibacillus casei

Molecule: Cc1cn([C@H]2C[C@H](O)[C@@H](COP(=O)(O)O)O2)c(=O)[nH]c1=O [THYMIDINE MONOPHOSPHATE]
- Ki (Thymidylate synthase [1]): 15500 nM
- Ki (Thymidylate synthase [2]): 8690 nM

Molecule: O=c1[nH]c(=O)n([C@H]2C[C@H](O)[C@@H](COP(=O)(O)O)O2)cc1Br
- Ki (Thymidylate synthase [1]): 1400 nM
- Activity [3]: 3%

Molecule: O=c1ccn([C@H]2C[C@H](O)[C@@H](COP(=O)(O)O)O2)c(=O)[nH]1 [DEOXYURIDINE MONOPHOSPHATE]
- Ki (Thymidylate synthase [2]): 2260 nM

Molecule: O=c1[nH]c(=O)n([C@H]2C[C@H](O)[C@@H](COP(=O)(O)O)O2)cc1I
- Ki (Thymidylate synthase [1]): 1600 nM
- Activity [3]: 2.5%

B1: Thymidylate synthase (Lactobacillus casei), P00469 (protein)
chain: T1 sequence (P00469 whole entry)
- Km [4]: 5.2 µM
- Km [5]: 5.7 µM
- Km [6]: 1.44 µM

The remaining molecules from weak to strong by Ki (Thymidylate synthase [1]), led by results:

- Ki (Thymidylate synthase [1]): 190 nM
- Ki (Thymidylate synthase [2]): 9390 nM
Molecule: O=c1[nH]c(=O)n([C@H]2C[C@H](O)[C@@H](COP(=O)(O)O)O2)cc1Cl

- Ki (Thymidylate synthase [1]): 39 nM
Molecule: O=c1[nH]c(=O)n([C@H]2C[C@H](O)[C@@H](COP(=O)(O)O)O2)cc1C(F)(F)F

- Ki (Thymidylate synthase [1]): 17 nM
Molecule: O=Cc1cn([C@H]2C[C@H](O)[C@@H](COP(=O)(O)O)O2)c(=O)[nH]c1=O
